Data from ChEMBL document CHEMBL1938382, “Fragment-based discovery of indole inhibitors of matrix metalloproteinase-13” (J Med Chem, 2011).
Converted amounts (≈) assume the structure as drawn.

target: Cytochrome P450 3A4 (Homo sapiens, UniProt P08684); experiment: Inhibition of human recombinant CYP3A4 using 7-benzyloxy-4-trifluoromethylcoumarin as substrate after 30 mins by fluorimetry; type: ADME; details: not given
Sequence (P08684 whole entry): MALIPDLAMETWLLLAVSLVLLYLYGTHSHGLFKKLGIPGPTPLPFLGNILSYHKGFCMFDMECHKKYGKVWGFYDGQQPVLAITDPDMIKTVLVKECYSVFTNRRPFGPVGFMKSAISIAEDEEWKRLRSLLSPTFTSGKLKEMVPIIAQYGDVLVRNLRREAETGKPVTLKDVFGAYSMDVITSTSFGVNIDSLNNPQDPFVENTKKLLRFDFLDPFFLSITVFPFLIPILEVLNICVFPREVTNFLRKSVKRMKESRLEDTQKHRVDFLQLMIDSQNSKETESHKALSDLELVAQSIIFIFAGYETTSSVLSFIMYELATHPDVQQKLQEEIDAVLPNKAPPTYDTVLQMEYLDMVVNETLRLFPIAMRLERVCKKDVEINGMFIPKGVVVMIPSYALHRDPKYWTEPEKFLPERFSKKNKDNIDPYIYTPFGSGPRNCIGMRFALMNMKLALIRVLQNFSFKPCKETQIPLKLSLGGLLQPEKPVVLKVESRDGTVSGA

Compound	IC50
CCOC(=O)c1cc2cc(-c3cc(C(=O)NCc4ccc(C(=O)O)cc4)nn3C)ccc2[nH]1 [BI 4394]	> 30 µM

target: T1, Collagenase 3 (Homo sapiens, UniProt P45452); experiment: Inhibition of […]-activated MMP13-mediated degradation of FITC-labeled type2 collagen after 1.5 hrs by fluorimetry; details: not given

Compound	IC50
CCOC(=O)c1cc2cc(-c3cc(C(=O)NCc4ccc(C(=O)O)cc4)nn3C)ccc2[nH]1 [BI 4394]	0.011 µM

target: T1, Collagenase 3; experiment: Inhibition of human MMP13-mediated degradation of bovine nasal cartilage after 2 hrs by ELISA in the presence of 10% human serum; details: not given

Compound	IC50
CCOC(=O)c1cc2cc(-c3cc(C(=O)NCc4ccc(C(=O)O)cc4)nn3C)ccc2[nH]1 [BI 4394]	0.031 µM

test system: not listed separately; experiment: Aqueous solubility of the compound at pH 7.4 by UV spectrophotometry; type: physicochemical; details: buffer; call rule not given here

Compound	solubility
CCOC(=O)c1cc2cc(-c3cc(C(=O)NCc4ccc(C(=O)O)cc4)nn3C)ccc2[nH]1 [BI 4394]	60 µg/mL (≈ 134 µM)

test system: not listed separately; experiment: Lipophilicity, log P of the compound; type: physicochemical; details: octanol/water

Compound	logP
CCOC(=O)c1cc2cc(-c3cc(C(=O)NCc4ccc(C(=O)O)cc4)nn3C)ccc2[nH]1 [BI 4394]	1.9

test system: Rattus norvegicus; experiment: AUC in Sprague-Dawley rat at 1 mg/kg, iv; type: ADME, organism-based, Plasma; parameters: dose 1 mg/kg, route intravenous; details: in vivo

Compound	AUC
CCOC(=O)c1cc2cc(-c3cc(C(=O)NCc4ccc(C(=O)O)cc4)nn3C)ccc2[nH]1 [BI 4394]	1109 nM.hr/ml

test system: Rattus norvegicus; experiment: Volume of distribution at steady state in Sprague-Dawley rat at 1 mg/kg, iv and 10 mg/kg, po; type: ADME, organism-based; details: in vivo

Compound	Vdss
CCOC(=O)c1cc2cc(-c3cc(C(=O)NCc4ccc(C(=O)O)cc4)nn3C)ccc2[nH]1 [BI 4394]	0.26 L/kg

test system: not listed separately; experiment: Clearance in Sprague-Dawley rat at 1 mg/kg, iv and 10 mg/kg, po; type: ADME, organism-based; details: in vivo

Compound	clearance
CCOC(=O)c1cc2cc(-c3cc(C(=O)NCc4ccc(C(=O)O)cc4)nn3C)ccc2[nH]1 [BI 4394]	34 mL/min/kg

test system: not listed separately; experiment: Half life in Sprague-Dawley rat at 1 mg/kg, iv and 10 mg/kg, po; type: ADME, organism-based; details: in vivo

Compound	half-life
CCOC(=O)c1cc2cc(-c3cc(C(=O)NCc4ccc(C(=O)O)cc4)nn3C)ccc2[nH]1 [BI 4394]	28.2 min

test system: not listed separately; experiment: Cmax in Sprague-Dawley rat at 1 mg/kg, iv and 10 mg/kg, po; type: ADME, organism-based; details: in vivo

Compound	Cmax
CCOC(=O)c1cc2cc(-c3cc(C(=O)NCc4ccc(C(=O)O)cc4)nn3C)ccc2[nH]1 [BI 4394]	1660 nM

test system: Rattus norvegicus; experiment: AUC in Sprague-Dawley rat at 10 mg/kg, po; type: ADME, organism-based, Plasma; parameters: dose 10 mg/kg, route oral; details: in vivo

Compound	AUC
CCOC(=O)c1cc2cc(-c3cc(C(=O)NCc4ccc(C(=O)O)cc4)nn3C)ccc2[nH]1 [BI 4394]	4328 nM.hr/ml

test system: not listed separately; experiment: Oral bioavailability in Sprague-Dawley rat at 10 mg/kg; type: ADME, organism-based; details: in vivo

Compound	bioavailability
CCOC(=O)c1cc2cc(-c3cc(C(=O)NCc4ccc(C(=O)O)cc4)nn3C)ccc2[nH]1 [BI 4394]	39%

test system: not listed separately; experiment: Metabolic stability in human liver microsomes after 5 mins relative to human hepatic blood flow; type: ADME, Microsome; details: read-out: Stability

Compound	hepatic extraction ratio at 5 min
Cn1nc(C(=O)NCc2ccc(C(=O)O)cc2)cc1-c1ccc2[nH]ccc2c1 [BI 4395]	0.25
CCOCc1cc2cc(-c3cc(C(=O)NCc4ccc(C(=O)O)cc4)nn3C)ccc2[nH]1	0.78

test system: Liver microsomes; experiment: Drug metabolism in Sprague-Dawley rat liver microsomes assessed as ester hydrolysis product formation; type: ADME, Microsome; details: not given

Compound	Drug metabolism
Cn1nc(C(=O)NCc2ccc(C(=O)O)cc2)cc1-c1ccc2[nH]c(C(=O)O)cc2c1	Active

target: 72 kDa type IV collagenase (Homo sapiens, UniProt P08253); experiment: Inhibition of human recombinant MMP2 after 30 mins by fluorimetry; details: not given
Sequence (P08253 whole entry): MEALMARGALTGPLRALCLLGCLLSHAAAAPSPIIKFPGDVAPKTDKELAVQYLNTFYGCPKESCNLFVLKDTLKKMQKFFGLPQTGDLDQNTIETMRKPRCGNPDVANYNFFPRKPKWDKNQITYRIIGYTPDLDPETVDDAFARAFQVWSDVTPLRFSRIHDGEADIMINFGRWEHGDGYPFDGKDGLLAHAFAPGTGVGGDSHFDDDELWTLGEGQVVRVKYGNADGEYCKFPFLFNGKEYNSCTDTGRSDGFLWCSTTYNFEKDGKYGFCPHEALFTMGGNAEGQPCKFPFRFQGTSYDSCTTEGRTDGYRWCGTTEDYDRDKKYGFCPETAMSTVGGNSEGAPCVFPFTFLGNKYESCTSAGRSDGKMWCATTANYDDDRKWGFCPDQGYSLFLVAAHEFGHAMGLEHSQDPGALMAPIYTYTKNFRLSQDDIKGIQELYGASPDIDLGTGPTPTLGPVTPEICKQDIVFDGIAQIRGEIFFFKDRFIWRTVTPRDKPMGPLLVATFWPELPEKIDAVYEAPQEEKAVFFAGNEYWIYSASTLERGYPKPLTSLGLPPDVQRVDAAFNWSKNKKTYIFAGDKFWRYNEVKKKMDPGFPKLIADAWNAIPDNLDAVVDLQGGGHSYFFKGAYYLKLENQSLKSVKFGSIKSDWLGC

Compound	IC50
CCCC(=O)c1cc2cc(C(N)=O)ccc2[nH]1	> 500 µM
CC(=O)Nc1ccc2[nH]c(C3=NCCO3)cc2c1	> 500 µM
CCOC(=O)c1cc2cc(-c3cccnc3)ccc2[nH]1	30 µM
CCOC(=O)c1cc2cc(-c3ccncc3C)ccc2[nH]1	> 500 µM
CCOC(=O)c1cc2cc(-c3ccccn3)ccc2[nH]1	> 500 µM
CCOC(=O)c1cc2cc(NC(C)=O)ccc2[nH]1	> 500 µM

target: Matrix metalloproteinase-14 (Homo sapiens, UniProt P50281); experiment: Inhibition of human recombinant MMP14 after 60 mins by fluorimetry; details: not given

Compound	IC50
CCCC(=O)c1cc2cc(C(N)=O)ccc2[nH]1	> 500 µM
CC(=O)Nc1ccc2[nH]c(C3=NCCO3)cc2c1	> 500 µM
CCOC(=O)c1cc2cc(-c3cccnc3)ccc2[nH]1	51 µM
CCOC(=O)c1cc2cc(-c3ccncc3C)ccc2[nH]1	> 500 µM
CCOC(=O)c1cc2cc(-c3ccccn3)ccc2[nH]1	> 500 µM
CCOC(=O)c1cc2cc(NC(C)=O)ccc2[nH]1	> 500 µM

target: T1, Collagenase 3; experiment: Inhibition of MMP13 after 30 mins by fluorimetry in the presence of 1.25% human serum albumin; details: not given

Compound	IC50
CCOC(=O)c1cc2cc(-c3cc(C(=O)NCc4ccc(C(=O)O)cc4)nn3C)ccc2[nH]1 [BI 4394]	0.004 µM
Cn1nc(C(=O)NCc2ccc(C(=O)O)cc2)cc1-c1ccc2[nH]c(C(=O)O)cc2c1	56 µM
CCOCc1cc2cc(-c3cc(C(=O)NCc4ccc(C(=O)O)cc4)nn3C)ccc2[nH]1	1.9 µM

target: T2, Interstitial collagenase (Homo sapiens, UniProt P03956); experiment: Inhibition of human recombinant MMP1 after 30 mins by fluorimetry; details: not given
T2 sequence (P03956 whole entry): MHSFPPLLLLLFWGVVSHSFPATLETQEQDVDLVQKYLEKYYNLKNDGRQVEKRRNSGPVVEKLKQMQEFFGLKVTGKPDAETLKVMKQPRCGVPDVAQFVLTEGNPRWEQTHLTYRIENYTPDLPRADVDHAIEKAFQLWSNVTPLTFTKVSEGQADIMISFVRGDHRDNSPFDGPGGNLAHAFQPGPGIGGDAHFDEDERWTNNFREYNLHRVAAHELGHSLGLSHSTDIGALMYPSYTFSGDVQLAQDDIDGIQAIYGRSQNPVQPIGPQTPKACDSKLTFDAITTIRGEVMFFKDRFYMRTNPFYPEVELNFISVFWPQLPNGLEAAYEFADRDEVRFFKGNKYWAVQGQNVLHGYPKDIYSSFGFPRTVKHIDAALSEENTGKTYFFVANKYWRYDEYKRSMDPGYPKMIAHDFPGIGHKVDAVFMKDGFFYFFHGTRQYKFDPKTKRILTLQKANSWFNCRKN

Compound	IC50
CCOC(=O)c1cc2cc(-c3cc(C(=O)NCc4ccc(C(=O)O)cc4)nn3C)ccc2[nH]1 [BI 4394]	> 22 µM

target: Stromelysin-1 (Homo sapiens, UniProt P08254); experiment: Inhibition of human recombinant MMP3 after 30 mins by fluorimetry; details: not given
Sequence (P08254 whole entry): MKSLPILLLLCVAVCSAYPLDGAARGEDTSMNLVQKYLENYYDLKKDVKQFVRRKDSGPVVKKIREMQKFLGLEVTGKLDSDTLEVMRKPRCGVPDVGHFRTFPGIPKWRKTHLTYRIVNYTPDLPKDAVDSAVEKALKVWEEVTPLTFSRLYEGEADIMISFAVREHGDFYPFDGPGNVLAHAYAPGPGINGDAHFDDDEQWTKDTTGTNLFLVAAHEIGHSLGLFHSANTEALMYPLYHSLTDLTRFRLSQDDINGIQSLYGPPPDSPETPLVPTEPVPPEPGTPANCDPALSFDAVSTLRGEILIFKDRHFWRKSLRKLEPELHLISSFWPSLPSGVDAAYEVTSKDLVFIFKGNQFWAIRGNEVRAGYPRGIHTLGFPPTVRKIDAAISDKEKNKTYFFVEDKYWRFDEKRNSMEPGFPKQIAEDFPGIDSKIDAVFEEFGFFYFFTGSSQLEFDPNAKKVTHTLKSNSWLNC

Compound	IC50
CCOC(=O)c1cc2cc(-c3cc(C(=O)NCc4ccc(C(=O)O)cc4)nn3C)ccc2[nH]1 [BI 4394]	> 22 µM

target: T3, Matrilysin (Homo sapiens, UniProt P09237); experiment: Inhibition of human recombinant MMP7 after 30 mins by fluorimetry; details: not given
T3 sequence (P09237 whole entry): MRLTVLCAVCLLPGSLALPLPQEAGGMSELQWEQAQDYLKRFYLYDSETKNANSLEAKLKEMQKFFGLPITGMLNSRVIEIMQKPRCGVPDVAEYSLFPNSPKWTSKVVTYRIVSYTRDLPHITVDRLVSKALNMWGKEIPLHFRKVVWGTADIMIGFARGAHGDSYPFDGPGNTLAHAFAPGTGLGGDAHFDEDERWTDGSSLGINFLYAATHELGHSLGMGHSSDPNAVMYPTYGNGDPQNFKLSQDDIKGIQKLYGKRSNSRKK

Compound	IC50
CCOC(=O)c1cc2cc(-c3cc(C(=O)NCc4ccc(C(=O)O)cc4)nn3C)ccc2[nH]1 [BI 4394]	> 22 µM

target: Neutrophil collagenase (Homo sapiens, UniProt P22894); experiment: Inhibition of human recombinant MMP8 after 30 mins by fluorimetry; details: not given
Sequence (P22894 whole entry): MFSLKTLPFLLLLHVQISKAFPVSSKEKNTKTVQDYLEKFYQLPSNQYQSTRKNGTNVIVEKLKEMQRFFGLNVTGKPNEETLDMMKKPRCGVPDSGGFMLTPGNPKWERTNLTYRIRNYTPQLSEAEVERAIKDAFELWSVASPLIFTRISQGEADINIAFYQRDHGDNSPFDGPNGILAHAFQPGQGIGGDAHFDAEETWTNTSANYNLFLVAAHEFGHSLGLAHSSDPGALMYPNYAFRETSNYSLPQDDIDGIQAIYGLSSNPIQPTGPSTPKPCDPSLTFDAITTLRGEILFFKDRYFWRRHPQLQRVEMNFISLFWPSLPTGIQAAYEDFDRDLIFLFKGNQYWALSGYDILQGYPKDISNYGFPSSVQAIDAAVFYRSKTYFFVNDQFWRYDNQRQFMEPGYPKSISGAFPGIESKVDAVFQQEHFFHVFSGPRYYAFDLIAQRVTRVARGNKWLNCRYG

Compound	IC50
CCOC(=O)c1cc2cc(-c3cc(C(=O)NCc4ccc(C(=O)O)cc4)nn3C)ccc2[nH]1 [BI 4394]	> 22 µM

target: Matrix metalloproteinase-9 (Homo sapiens, UniProt P14780); experiment: Inhibition of human recombinant MMP9 after 30 mins by fluorimetry; details: not given
Sequence (P14780 whole entry): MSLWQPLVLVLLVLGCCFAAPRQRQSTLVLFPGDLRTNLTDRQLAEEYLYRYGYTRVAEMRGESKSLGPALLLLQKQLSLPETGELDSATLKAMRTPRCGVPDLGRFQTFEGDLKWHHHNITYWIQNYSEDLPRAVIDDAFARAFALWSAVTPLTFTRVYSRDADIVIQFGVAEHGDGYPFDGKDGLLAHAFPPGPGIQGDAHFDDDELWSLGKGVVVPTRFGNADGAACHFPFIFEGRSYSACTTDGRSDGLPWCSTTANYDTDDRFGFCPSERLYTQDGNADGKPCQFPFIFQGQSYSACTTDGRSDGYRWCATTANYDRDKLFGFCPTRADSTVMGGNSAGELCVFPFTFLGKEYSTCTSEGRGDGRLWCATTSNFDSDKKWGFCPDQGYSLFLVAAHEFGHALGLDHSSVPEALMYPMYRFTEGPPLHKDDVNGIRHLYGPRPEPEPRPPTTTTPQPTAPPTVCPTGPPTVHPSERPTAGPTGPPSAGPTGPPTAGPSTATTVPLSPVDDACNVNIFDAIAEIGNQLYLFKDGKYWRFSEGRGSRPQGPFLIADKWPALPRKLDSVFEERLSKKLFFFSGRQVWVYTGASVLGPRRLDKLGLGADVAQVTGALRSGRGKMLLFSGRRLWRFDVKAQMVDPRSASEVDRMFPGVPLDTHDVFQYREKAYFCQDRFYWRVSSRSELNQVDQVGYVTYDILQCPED

Compound	IC50
CCOC(=O)c1cc2cc(-c3cc(C(=O)NCc4ccc(C(=O)O)cc4)nn3C)ccc2[nH]1 [BI 4394]	8.9 µM

target: Stromelysin-2 (Homo sapiens, UniProt P09238); experiment: Inhibition of human recombinant MMP10 after 30 mins by fluorimetry; details: not given
Sequence (P09238 whole entry): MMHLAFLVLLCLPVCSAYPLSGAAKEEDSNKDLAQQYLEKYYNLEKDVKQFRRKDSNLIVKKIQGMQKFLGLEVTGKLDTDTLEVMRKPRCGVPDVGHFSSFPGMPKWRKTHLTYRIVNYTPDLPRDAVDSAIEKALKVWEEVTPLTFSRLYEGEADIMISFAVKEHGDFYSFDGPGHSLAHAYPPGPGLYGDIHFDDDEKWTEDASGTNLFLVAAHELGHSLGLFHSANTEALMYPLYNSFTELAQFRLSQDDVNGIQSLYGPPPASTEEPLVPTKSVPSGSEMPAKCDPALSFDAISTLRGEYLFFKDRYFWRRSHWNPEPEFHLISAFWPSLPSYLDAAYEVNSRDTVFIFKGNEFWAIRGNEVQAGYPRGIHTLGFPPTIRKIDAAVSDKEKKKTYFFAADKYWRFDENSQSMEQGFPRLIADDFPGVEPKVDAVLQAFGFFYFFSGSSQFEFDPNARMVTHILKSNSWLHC

Compound	IC50
CCOC(=O)c1cc2cc(-c3cc(C(=O)NCc4ccc(C(=O)O)cc4)nn3C)ccc2[nH]1 [BI 4394]	16 µM

target: Macrophage metalloelastase (Homo sapiens, UniProt P39900); experiment: Inhibition of human recombinant MMP12 after 30 mins by fluorimetry; details: not given
Sequence (P39900 whole entry): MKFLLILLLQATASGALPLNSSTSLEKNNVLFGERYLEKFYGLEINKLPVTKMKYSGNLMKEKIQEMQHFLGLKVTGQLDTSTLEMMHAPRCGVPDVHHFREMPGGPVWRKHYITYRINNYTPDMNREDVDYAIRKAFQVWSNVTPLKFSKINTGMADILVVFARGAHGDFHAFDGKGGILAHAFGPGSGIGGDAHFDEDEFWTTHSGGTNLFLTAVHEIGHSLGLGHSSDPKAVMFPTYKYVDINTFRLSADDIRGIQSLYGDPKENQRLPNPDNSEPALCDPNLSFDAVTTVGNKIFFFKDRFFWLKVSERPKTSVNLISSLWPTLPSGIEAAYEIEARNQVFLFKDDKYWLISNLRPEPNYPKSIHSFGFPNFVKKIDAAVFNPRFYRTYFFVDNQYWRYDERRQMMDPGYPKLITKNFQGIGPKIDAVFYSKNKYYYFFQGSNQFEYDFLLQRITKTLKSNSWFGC

Compound	IC50
CCOC(=O)c1cc2cc(-c3cc(C(=O)NCc4ccc(C(=O)O)cc4)nn3C)ccc2[nH]1 [BI 4394]	> 22 µM

target: Cytochrome P450 2C9 (Homo sapiens, UniProt P11712); experiment: Inhibition of human recombinant CYP2C9 using 7-methoxy-4-trifluoromethylcoumarin as substrate after 45 mins by fluorimetry; type: ADME; details: not given
Sequence (P11712 whole entry): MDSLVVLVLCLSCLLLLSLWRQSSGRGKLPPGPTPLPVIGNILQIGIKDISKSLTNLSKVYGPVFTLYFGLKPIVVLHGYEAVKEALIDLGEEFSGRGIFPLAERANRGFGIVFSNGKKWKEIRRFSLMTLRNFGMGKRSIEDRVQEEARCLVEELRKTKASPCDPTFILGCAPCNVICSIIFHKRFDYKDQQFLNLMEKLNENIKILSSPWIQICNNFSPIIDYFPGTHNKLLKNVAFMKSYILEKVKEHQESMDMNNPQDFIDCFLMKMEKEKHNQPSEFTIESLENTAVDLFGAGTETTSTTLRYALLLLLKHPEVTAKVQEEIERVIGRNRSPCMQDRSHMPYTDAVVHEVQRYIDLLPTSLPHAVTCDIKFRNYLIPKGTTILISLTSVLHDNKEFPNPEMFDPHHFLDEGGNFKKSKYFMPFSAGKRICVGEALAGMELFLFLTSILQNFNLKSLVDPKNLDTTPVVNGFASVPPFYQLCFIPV

Compound	IC50
CCOC(=O)c1cc2cc(-c3cc(C(=O)NCc4ccc(C(=O)O)cc4)nn3C)ccc2[nH]1 [BI 4394]	> 30 µM

target: T1, Collagenase 3; details: not given

Compound	IC50
CCCC(=O)c1cc2cc(C(N)=O)ccc2[nH]1	> 500 µM
CC(=O)Nc1ccc2[nH]c(C3=NCCO3)cc2c1	220 µM
CCOC(=O)c1cc2cc(-c3cccnc3)ccc2[nH]1	15 µM
CCOC(=O)c1cc2cc(-c3ccncc3C)ccc2[nH]1	9.6 µM
CCOC(=O)c1cc2cc(-c3cc(C(=O)NCc4ccc(C(=O)O)cc4)nn3C)ccc2[nH]1 [BI 4394]	0.001 µM
CCOC(=O)c1cc2cc(-c3ccccn3)ccc2[nH]1	> 500 µM
Cn1nc(C(=O)NCc2ccc(C(=O)O)cc2)cc1-c1ccc2[nH]c(C(=O)O)cc2c1	25 µM
CCOC(=O)c1cc2cc(NC(C)=O)ccc2[nH]1	31 µM
Cn1nc(C(=O)NCc2ccc(C(=O)O)cc2)cc1-c1ccc2[nH]ccc2c1 [BI 4395]	> 26 µM
CCOCc1cc2cc(-c3cc(C(=O)NCc4ccc(C(=O)O)cc4)nn3C)ccc2[nH]1	0.25 µM
